Assay results: patent US20060128792A1, “Deguelin as a chemopreventive agent for lung cancer” (priority 2002, published 2006)
Several values for one entry are separate records, joined by “and”; a condition that tells them apart may be missing. Identical values can stand only once.

Key:
Assay in all cases: MTT assay, growth inhibition by deguelin or deguelin derivatives
Format in all cases: cell-based
Conditions in all cases: 3 days
[1] = system: H596
[2] = system: H1299
[3] = system: H322
[4] = system: A549
[5] = system: H460
[6] = system: H358

SMILES: C=C(C)[C@H]1Cc2c(ccc3c(=O)c4c(oc23)COc2cc(OC)c(OC)cc2-4)O1 [6a,2a-dehydrorotenone]
- MTT assay reading, Average ([1]; H596, 0.01 μM): 1.6089
- MTT assay reading, individual replicate ([1]; H596, 0.01 μM): 1.581 and 1.597 and 1.651 and 1.605 and 1.631 and 1.617 and 1.58
- MTT assay reading, Average ([1]; H596, 0.1 μM): 1.399
- MTT assay reading, individual replicate ([1]; H596, 0.1 μM): 1.347 and 1.381 and 1.333 and 1.513 and 1.417 and 1.34 and 1.462
- MTT assay reading, Average ([1]; H596, 0.5 μM): 1.4016
- MTT assay reading, individual replicate ([1]; H596, 0.5 μM): 1.343 and 1.467 and 1.312 and 1.463 and 1.351 and 1.399 and 1.476
- MTT assay reading, Average ([1]; H596, 1 μM): 1.3214
- MTT assay reading, individual replicate ([1]; H596, 1 μM): 1.234 and 1.257 and 1.341 and 1.494 and 1.326 and 1.319 and 1.279
- % control ([2]; H1299, 0.01 μM): 0.99%
- MTT assay reading, Average ([2]; H1299, 0.01 μM): 1.5514
- MTT assay reading, individual replicate ([2]; H1299, 0.01 μM): 1.562 and 1.561 and 1.559 and 1.63 and 1.515 and 1.517 and 1.516
- % control ([2]; H1299, 0.1 μM): 0.89%
- MTT assay reading, Average ([2]; H1299, 0.1 μM): 1.3907
- MTT assay reading, individual replicate ([2]; H1299, 0.1 μM): 1.39 and 1.308 and 1.385 and 1.539 and 1.281 and 1.351 and 1.481
- % control ([2]; H1299, 0.5 μM): 0.95%
- MTT assay reading, Average ([2]; H1299, 0.5 μM): 1.4937
- MTT assay reading, individual replicate ([2]; H1299, 0.5 μM): 1.544 and 1.561 and 1.338 and 1.502 and 1.595 and 1.413 and 1.503
- % control ([2]; H1299, 1 μM): 0.89%
- MTT assay reading, Average ([2]; H1299, 1 μM): 1.3961
- MTT assay reading, individual replicate ([2]; H1299, 1 μM): 1.452 and 1.321 and 1.233 and 1.57 and 1.421 and 1.33 and 1.446
- MTT assay reading, Average ([3]; H322, 0.01 μM): 0.969
- MTT assay reading, individual replicate ([3]; H322, 0.01 μM): 0.795 and 0.799 and 0.893 and 0.989 and 1.014 and 1.101 and 1.192
- MTT assay reading, Average ([3]; H322, 0.1 μM): 0.8656
- MTT assay reading, individual replicate ([3]; H322, 0.1 μM): 0.865 and 0.771 and 0.799 and 0.872 and 0.866 and 0.909 and 0.977
- MTT assay reading, Average ([3]; H322, 0.5 μM): 0.828
- MTT assay reading, individual replicate ([3]; H322, 0.5 μM): 0.736 and 0.809 and 0.833 and 0.746 and 0.89 and 0.958 and 0.824
- MTT assay reading, Average ([3]; H322, 1 μM): 0.7213
- MTT assay reading, individual replicate ([3]; H322, 1 μM): 0.677 and 0.658 and 0.692 and 0.681 and 0.68 and 0.859 and 0.802
- MTT assay reading, Average ([4]; A549, 0.01 μM): 1.7067
- MTT assay reading, individual replicate ([4]; A549, 0.01 μM): 1.69 (2×) and 1.705 and 1.541 and 1.829 and 1.786 and 1.706
- MTT assay reading, Average ([4]; A549, 0.1 μM): 1.4161
- MTT assay reading, individual replicate ([4]; A549, 0.1 μM): 0.691 and 1.805 and 1.719 and 1.454 and 1.375 (2×) and 1.494
- MTT assay reading, Average ([4]; A549, 0.5 μM): 1.4871
- MTT assay reading, individual replicate ([4]; A549, 0.5 μM): 1.531 and 1.925 and 1.594 and 1.387 and 1.359 and 1.356 and 1.258
- MTT assay reading, Average ([4]; A549, 1 μM): 1.4281
- MTT assay reading, individual replicate ([4]; A549, 1 μM): 1.544 and 1.458 and 1.375 and 1.486 and 1.428 and 1.464 and 1.242
- % control ([5]; H460, 0.01 μM): 0.96%
- MTT assay reading, Average ([5]; H460, 0.01 μM): 1.6774
- MTT assay reading, individual replicate ([5]; H460, 0.01 μM): 1.625 and 1.563 and 1.731 and 1.89 and 1.443 and 1.675 and 1.815
- % control ([5]; H460, 0.1 μM): 0.78%
- MTT assay reading, Average ([5]; H460, 0.1 μM): 1.3666
- MTT assay reading, individual replicate ([5]; H460, 0.1 μM): 1.314 (2×) and 1.333 and 1.204 and 1.501 and 1.379 and 1.521
- % control ([5]; H460, 0.5 μM): 0.85%
- MTT assay reading, Average ([5]; H460, 0.5 μM): 1.49
- MTT assay reading, individual replicate ([5]; H460, 0.5 μM): 1.31 and 1.421 and 1.538 and 1.504 and 1.55 and 1.534 and 1.573
- % control ([5]; H460, 1 μM): 0.79%
- MTT assay reading, Average ([5]; H460, 1 μM): 1.382
- MTT assay reading, individual replicate ([5]; H460, 1 μM): 1.253 and 1.353 and 1.351 and 1.347 and 1.429 and 1.319 and 1.622
- MTT assay reading, Average ([6]; H358, 0.01 μM): 0.8861
- MTT assay reading, individual replicate ([6]; H358, 0.01 μM): 0.784 and 0.734 and 0.786 and 0.686 and 0.95 and 1.192 and 1.071
- MTT assay reading, Average ([6]; H358, 0.1 μM): 0.7511
- MTT assay reading, individual replicate ([6]; H358, 0.1 μM): 0.602 and 0.652 and 0.603 and 0.672 and 0.792 and 0.778 and 1.159
- MTT assay reading, Average ([6]; H358, 0.5 μM): 0.6756
- MTT assay reading, individual replicate ([6]; H358, 0.5 μM): 0.533 and 0.604 and 0.6 and 0.736 and 0.633 and 0.734 and 0.889
- MTT assay reading, Average ([6]; H358, 1 μM): 0.684
- MTT assay reading, individual replicate ([6]; H358, 1 μM): 0.686 and 0.624 and 0.639 and 0.64 and 0.667 and 0.752 and 0.78

SMILES: COc1cc2c(cc1OC)-c1c(oc3c4c(ccc3c1=O)OC(C)(C)C=C4)CO2 [7a,13a-dehydrodeguelin]
- MTT assay reading, Average ([1]; H596, 0.01 μM): 1.4338
- MTT assay reading, individual replicate ([1]; H596, 0.01 μM): 1.408 and 1.317 and 1.526 and 1.458 and 1.495 and 1.399
- MTT assay reading, Average ([1]; H596, 0.1 μM): 1.2779
- MTT assay reading, individual replicate ([1]; H596, 0.1 μM): 1.356 and 1.281 and 1.153 and 1.273 and 1.246 and 1.358 and 1.278
- MTT assay reading, Average ([1]; H596, 0.5 μM): 1.2116
- MTT assay reading, individual replicate ([1]; H596, 0.5 μM): 1.19 and 1.194 and 1.071 and 1.133 and 1.285 and 1.365 and 1.243
- MTT assay reading, Average ([1]; H596, 1 μM): 1.0616
- MTT assay reading, individual replicate ([1]; H596, 1 μM): 1.202 and 1.183 and 1.019 and 1.159 and 1.07 and 0.899 (2×)
- % control ([2]; H1299, 0.01 μM): 0.93%
- MTT assay reading, Average ([2]; H1299, 0.01 μM): 1.3179
- MTT assay reading, individual replicate ([2]; H1299, 0.01 μM): 1.311 and 1.344 and 1.402 and 1.302 and 1.286 and 1.293 and 1.287
- % control ([2]; H1299, 0.1 μM): 0.87%
- MTT assay reading, Average ([2]; H1299, 0.1 μM): 1.2374
- MTT assay reading, individual replicate ([2]; H1299, 0.1 μM): 1.228 and 1.331 and 1.318 and 1.141 and 1.196 and 1.153 and 1.295
- % control ([2]; H1299, 0.5 μM): 0.69%
- MTT assay reading, Average ([2]; H1299, 0.5 μM): 0.9707
- MTT assay reading, individual replicate ([2]; H1299, 0.5 μM): 1.033 and 1.017 and 1.106 and 0.913 and 0.874 and 0.947 and 0.905
- % control ([2]; H1299, 1 μM): 0.60%
- MTT assay reading, Average ([2]; H1299, 1 μM): 0.8452
- MTT assay reading, individual replicate ([2]; H1299, 1 μM): 0.769 and 0.838 and 0.938 and 0.813 and 0.837 and 0.876
- MTT assay reading, Average ([3]; H322, 0.01 μM): 1.0041
- MTT assay reading, individual replicate ([3]; H322, 0.01 μM): 0.921 and 1.08 and 1.05 and 1.022 and 0.888 and 0.926 and 1.142
- MTT assay reading, Average ([3]; H322, 0.1 μM): 1.0019
- MTT assay reading, individual replicate ([3]; H322, 0.1 μM): 1.04 and 1.033 and 0.923 and 1.031 and 1.09 and 0.883 and 1.013
- MTT assay reading, Average ([3]; H322, 0.5 μM): 0.866
- MTT assay reading, individual replicate ([3]; H322, 0.5 μM): 0.837 and 0.8 and 0.975 and 0.926 and 0.806 and 0.811 and 0.907
- MTT assay reading, Average ([3]; H322, 1 μM): 0.8379
- MTT assay reading, individual replicate ([3]; H322, 1 μM): 0.841 and 0.799 and 0.822 and 0.932 and 0.793 and 0.709 and 0.969
- MTT assay reading, Average ([4]; A549, 0.01 μM): 1.2597
- MTT assay reading, individual replicate ([4]; A549, 0.01 μM): 1.182 and 1.147 and 1.307 and 1.208 and 1.279 and 1.361 and 1.334
- MTT assay reading, Average ([4]; A549, 0.1 μM): 1.1816
- MTT assay reading, individual replicate ([4]; A549, 0.1 μM): 1.073 and 1.17 and 1.208 and 1.308 and 1.211 and 1.152 and 1.149
- MTT assay reading, Average ([4]; A549, 0.5 μM): 1.0421
- MTT assay reading, individual replicate ([4]; A549, 0.5 μM): 1.107 and 1.032 and 0.931 and 0.964 and 1.036 and 1.104 and 1.121
- MTT assay reading, Average ([4]; A549, 1 μM): 0.9223
- MTT assay reading, individual replicate ([4]; A549, 1 μM): 0.97 and 0.971 and 1.014 and 0.89 and 0.862 and 0.886 and 0.863
- % control ([5]; H460, 0.01 μM): 0.86%
- MTT assay reading, Average ([5]; H460, 0.01 μM): 1.4779
- MTT assay reading, individual replicate ([5]; H460, 0.01 μM): 1.531 and 1.338 and 1.635 and 1.354 and 1.477 and 1.476 and 1.534
- % control ([5]; H460, 0.1 μM): 0.88%
- MTT assay reading, Average ([5]; H460, 0.1 μM): 1.5079
- MTT assay reading, individual replicate ([5]; H460, 0.1 μM): 1.473 and 1.427 and 1.518 and 1.504 and 1.524 and 1.575 and 1.534
- % control ([5]; H460, 0.5 μM): 0.78%
- MTT assay reading, Average ([5]; H460, 0.5 μM): 1.3309
- MTT assay reading, individual replicate ([5]; H460, 0.5 μM): 1.297 and 1.323 and 1.388 and 1.304 and 1.362 and 1.335 and 1.307
- % control ([5]; H460, 1 μM): 0.64%
- MTT assay reading, Average ([5]; H460, 1 μM): 1.1053
- MTT assay reading, individual replicate ([5]; H460, 1 μM): 1.191 and 1.216 and 1.047 and 1.094 and 0.946 and 1.108 and 1.135
- MTT assay reading, Average ([6]; H358, 0.01 μM): 0.7673
- MTT assay reading, individual replicate ([6]; H358, 0.01 μM): 0.79 and 0.678 and 0.647 and 0.812 and 0.791 and 0.864 and 0.789
- MTT assay reading, Average ([6]; H358, 0.1 μM): 0.769
- MTT assay reading, individual replicate ([6]; H358, 0.1 μM): 0.726 and 0.676 and 0.824 and 0.846 and 0.782 and 0.658 and 0.871
- MTT assay reading, Average ([6]; H358, 0.5 μM): 0.719
- MTT assay reading, individual replicate ([6]; H358, 0.5 μM): 0.684 and 0.6 and 0.66 and 0.739 and 0.819 and 0.753 and 0.778
- MTT assay reading, Average ([6]; H358, 1 μM): 0.6534
- MTT assay reading, individual replicate ([6]; H358, 1 μM): 0.691 and 0.548 and 0.643 and 0.706 and 0.647 and 0.656 and 0.683
